Reference: US20240269136A1, “EGFR INHIBITOR AND PERK ACTIVATOR IN COMBINATION THERAPY AND THEIR USE FOR TREATING CANCER” (Genentech, Inc., priority 2021, published 2024)
Where two headings read alike, the source gives them in different places.

Tested on: PC9 cells
Experiment: CellTiter-Glo Luminescent Cell Viability Assay, PC9 cells, EGFR inhibitors and PERK activators alone and in combination
Type: cell-based
Protocol: PC9 cells were seeded in replicates in 96-well plates and allowed to attach overnight. The following day cells were treated with the indicated compounds or compound combinations at the indicated concentrations. Cell survival was measured 72 h post-treatment using CellTiter-Glo Luminescent Cell Viability Assay (Promega, G7572). Quantification of the fold decrease in cell viability was determined for single agent activity and for combinations relative to the DMSO-treated control (as shown in Table 1A and 1B). Mean (u) and standard deviation (o) was determined for biological triplicates using Microsoft Excel.

[1] = combination: CCT-020312 2 μM + EGFRi 0.1 μM, PC9, 72 h, relative to DMSO
[2] = combination: CCT-020312 2 μM + EGFRi 1 μM, PC9, 72 h, relative to DMSO
[3] = combination: DHBDC 50 μM + EGFRi 0.1 μM, PC9, 72 h, relative to DMSO
[4] = combination: DHBDC 50 μM + EGFRi 1 μM, PC9, 72 h, relative to DMSO
[5] = combination: IPA 1 μM + EGFRi 0.1 μM, PC9, 72 h, relative to DMSO
[6] = combination: IPA 1 μM + EGFRi 1 μM, PC9, 72 h, relative to DMSO
[7] = combination: MK-28 20 μM + EGFRi 0.1 μM, PC9, 72 h, relative to DMSO
[8] = combination: MK-28 20 μM + EGFRi 1 μM, PC9, 72 h, relative to DMSO
[9] = single agent, EGFRi 0.1 μM, PC9, 72 h, relative to DMSO, mean of biological triplicates
[10] = single agent, EGFRi 1 μM, PC9, 72 h, relative to DMSO, mean of biological triplicates
[11] = combination: CCT-020312 2 μM + EGFRi 0.01 μM, PC9, 72 h, relative to DMSO
[12] = combination: DHBDC 50 μM + EGFRi 0.01 μM, PC9, 72 h, relative to DMSO
[13] = combination: IPA 1 μM + EGFRi 0.01 μM, PC9, 72 h, relative to DMSO
[14] = combination: MK-28 20 μM + EGFRi 0.01 μM, PC9, 72 h, relative to DMSO
[15] = single agent, EGFRi 0.01 μM, PC9, 72 h, relative to DMSO, mean of biological triplicates

**Q.** For `Cc1cc(C(=O)Nc2nc3cccc(Cl)c3n2[C@@H]2CCCCN(C(=O)/C=C/CN(C)C)C2)ccn1` (racemic) [Nazartinib, N-[7-chloro-1-[rac-(3R)-1-[rac-(E)-4-(dimethylamino)but-2-enoyl]azepan-3-yl]benzimidazol-2-yl]-2-methyl-pyridine-4-carboxamide], which “CCT-020312 + Low EGFRi, fold decrease in cell viability (μ)” value (“CCT-020312 + Low EGFRi, fold decrease” below) [1] is on record?
**A.** The value was 255.4 fold.

**Q.** And the “CCT-020312 + High EGFRi, fold decrease in cell viability (μ)” value (“CCT-020312 + High EGFRi, fold decrease” for short) [2]?
**A.** Its value is 1514.1 fold.

**Q.** What about the “DHBDC + Low EGFRi, fold decrease in cell viability (μ)” value (shortened to “DHBDC + Low EGFRi, fold decrease”) [3] of the same compound?
**A.** The value was 25.8 fold.

**Q.** And the “DHBDC + High EGFRi, fold decrease in cell viability (μ)” value (from here on “DHBDC + High EGFRi, fold decrease”) [4]?
**A.** The value was 53.6 fold.

**Q.** And the “IPA + Low EGFRi, fold decrease in cell viability (μ)” value (from here on “IPA + Low EGFRi, fold decrease”) [5]?
**A.** Its value is 44.0 fold.

**Q.** What about the “IPA + High EGFRi, fold decrease in cell viability (μ)” value (shortened to “IPA + High EGFRi, fold decrease”) [6] of the same compound?
**A.** The value was 205.5 fold.

**Q.** What about the “MK-28 + Low EGFRI, fold decrease in cell viability (μ)” value (“MK-28 + Low EGFRI, fold decrease” for short) [7] of the same compound?
**A.** The value was 130.5 fold.

**Q.** And the “MK-28 + High EGFRi, fold decrease in cell viability (μ)” value (“MK-28 + High EGFRi, fold decrease” for short) [8]?
**A.** Its value is 421.8 fold.

**Q.** What about the “Low EGFRi, fold decrease in cell viability (μ)” value [9] of the same compound?
**A.** The value was 6.3 fold.

**Q.** What about the “High EGFRi, fold decrease in cell viability (μ)” value [10] of the same compound?
**A.** The value was 15.0 fold.

**Q.** What does the source list for `C=CC(=O)N[C@H]1C=C(C)c2c(-c3cnc4ccccc4c3)c3c(N)ncnc3n2C1` (racemic) [TAS-6417, N-[rac-(8S)-4-amino-6-methyl-5-(3-quinolyl)-8,9-dihydropyrimido[5,4-b]indolizin-8-yl]prop-2-enamide]?
**A.** CCT-020312 + Low EGFRi, fold decrease in cell viability (μ) [11]: 505.3 fold; CCT-020312 + High EGFRi, fold decrease in cell viability (μ) [1]: 1235.6 fold; DHBDC + Low EGFRi, fold decrease in cell viability (μ) [12]: 50.9 fold; DHBDC + High EGFRi, fold decrease in cell viability (μ) [3]: 71.8 fold; IPA + Low EGFRi, fold decrease in cell viability (μ) [13]: 72.3 fold; IPA + High EGFRi, fold decrease in cell viability (μ) [5]: 89.5 fold; MK-28 + Low EGFRI, fold decrease in cell viability (μ) [14]: 158.3 fold; MK-28 + High EGFRi, fold decrease in cell viability (μ) [7]: 301.6 fold; Low EGFRi, fold decrease in cell viability (μ) [15]: 10.5 fold; High EGFRi, fold decrease in cell viability (μ) [9]: 13.6 fold

**Q.** Which results are given for `COc1cc2ncnc(Nc3ccc(F)c(Cl)c3)c2cc1NC(=O)/C=C/CN1CCCCC1` [Dacomitinib, (E)-N-[4-(3-chloro-4-fluoro-anilino)-7-methoxy-quinazolin-6-yl]-4-(1-piperidyl)but-2-enamide]?
**A.** CCT-020312 + Low EGFRi, fold decrease in cell viability (μ) [11]: 731.1 fold; CCT-020312 + High EGFRi, fold decrease in cell viability (μ) [1]: 1325.3 fold; DHBDC + Low EGFRi, fold decrease in cell viability (μ) [12]: 66.5 fold; DHBDC + High EGFRi, fold decrease in cell viability (μ) [3]: 85.2 fold; IPA + Low EGFRi, fold decrease in cell viability (μ) [13]: 79.2 fold; IPA + High EGFRi, fold decrease in cell viability (μ) [5]: 275.2 fold; MK-28 + Low EGFRI, fold decrease in cell viability (μ) [14]: 170.8 fold; MK-28 + High EGFRi, fold decrease in cell viability (μ) [7]: 241.8 fold; Low EGFRi, fold decrease in cell viability (μ) [15]: 13.6 fold; High EGFRi, fold decrease in cell viability (μ) [9]: 14.5 fold

**Q.** Which “CCT-020312 + High EGFRi, fold decrease” value does the source give for `C=CC(=O)Nc1cc(Nc2nccc(-c3cn(C)c4ccccc34)n2)c(OC)cc1N(C)CCN(C)C` [Osimertinib, N-[2-[2-(dimethylamino)ethyl-methyl-amino]-4-methoxy-5-[[4-(1-methylindol-3-yl)pyrimidin-2-yl]amino]phenyl]prop-2-enamide] here?
**A.** Its value is 836.5 fold.

**Q.** What about the “CCT-020312 + Low EGFRi, fold decrease” value of the same compound?
**A.** Its value is 38.4 fold.

**Q.** And the “DHBDC + High EGFRi, fold decrease” value?
**A.** The value was 64.2 fold.

**Q.** What about the “DHBDC + Low EGFRi, fold decrease” value of the same compound?
**A.** Its value is 13.6 fold.

**Q.** And the “High EGFRi, fold decrease in cell viability (μ)” value?
**A.** Its value is 12.6 fold.

**Q.** What about the “IPA + High EGFRi, fold decrease” value of the same compound?
**A.** The value was 67.3 fold.

**Q.** And the “IPA + Low EGFRi, fold decrease” value?
**A.** The value was 9.9 fold.

**Q.** And the “Low EGFRi, fold decrease in cell viability (μ)” value?
**A.** Its value is 2.1 fold.

**Q.** And the “MK-28 + High EGFRi, fold decrease” value?
**A.** Its value is 220.3 fold.

**Q.** And the “MK-28 + Low EGFRI, fold decrease” value?
**A.** Its value is 72.7 fold.

**Q.** Which results are given for `C=CC(=O)N1CCC(Oc2cc3c(Nc4ccc(Cl)c(Cl)c4F)ncnc3cc2OC)CC1` [Poziotinib, 1-[4-[4-(3,4-dichloro-2-fluoro-anilino)-7-methoxy-quinazolin-6-yl]oxy-1-piperidyl]prop-2-en-1-one]?
**A.** CCT-020312 + Low EGFRi, fold decrease in cell viability (μ) [11]: 716.9 fold; CCT-020312 + High EGFRi, fold decrease in cell viability (μ) [1]: 1168.4 fold; DHBDC + Low EGFRi, fold decrease in cell viability (μ) [12]: 74.1 fold; DHBDC + High EGFRi, fold decrease in cell viability (μ) [3]: 88.4 fold; IPA + Low EGFRi, fold decrease in cell viability (μ) [13]: 107.6 fold; IPA + High EGFRi, fold decrease in cell viability (μ) [5]: 132.4 fold; MK-28 + Low EGFRI, fold decrease in cell viability (μ) [14]: 181.5 fold; MK-28 + High EGFRi, fold decrease in cell viability (μ) [7]: 295.2 fold; Low EGFRi, fold decrease in cell viability (μ) [15]: 14.3 fold; High EGFRi, fold decrease in cell viability (μ) [9]: 15.4 fold

**Q.** Which results are given for `C=CC(=O)Nc1cccc(Nc2nc(Nc3ccc(N4CCN(C(C)=O)CC4)cc3OC)ncc2C(F)(F)F)c1` [Rociletinib, N-[3-[[2-[4-(4-acetylpiperazin-1-yl)-2-methoxy-anilino]-5-(trifluoromethyl)pyrimidin-4-yl]amino]phenyl]prop-2-enamide]?
**A.** CCT-020312 + Low EGFRi, fold decrease in cell viability (μ) [1]: 5.1 fold; CCT-020312 + High EGFRi, fold decrease in cell viability (μ) [2]: 446.1 fold; DHBDC + Low EGFRi, fold decrease in cell viability (μ) [3]: 5.3 fold; DHBDC + High EGFRi, fold decrease in cell viability (μ) [4]: 88.0 fold; IPA + Low EGFRi, fold decrease in cell viability (μ) [5]: 6.4 fold; IPA + High EGFRi, fold decrease in cell viability (μ) [6]: 142.3 fold; MK-28 + Low EGFRI, fold decrease in cell viability (μ) [7]: 49.2 fold; MK-28 + High EGFRi, fold decrease in cell viability (μ) [8]: 268.9 fold; Low EGFRi, fold decrease in cell viability (μ) [9]: 1.3 fold; High EGFRi, fold decrease in cell viability (μ) [10]: 7.0 fold

**Q.** With `C=CC(=O)Nc1cccc(Oc2nc(Nc3ccc(N4CCN(C)CC4)cc3OC)ncc2Cl)c1` [WZ-4002, N-[3-[5-chloro-2-[2-methoxy-4-(4-methylpiperazin-1-yl)anilino]pyrimidin-4-yl]oxyphenyl]prop-2-enamide] as the compound, how does the “CCT-020312 + Low EGFRi, fold decrease” value [1] read?
**A.** The value was 49.8 fold.

**Q.** What about the “CCT-020312 + High EGFRi, fold decrease” value [2] of the same compound?
**A.** The value was 1482.6 fold.

**Q.** And the “DHBDC + Low EGFRi, fold decrease” value [3]?
**A.** Its value is 13.2 fold.

**Q.** And the “DHBDC + High EGFRi, fold decrease” value [4]?
**A.** Its value is 52.0 fold.

**Q.** What about the “IPA + Low EGFRi, fold decrease” value [5] of the same compound?
**A.** Its value is 10.3 fold.

**Q.** And the “IPA + High EGFRi, fold decrease” value [6]?
**A.** Its value is 106.0 fold.

**Q.** And the “MK-28 + Low EGFRI, fold decrease” value [7]?
**A.** Its value is 120.3 fold.

**Q.** And the “MK-28 + High EGFRi, fold decrease” value [8]?
**A.** The value was 422.1 fold.

**Q.** And the “Low EGFRi, fold decrease in cell viability (μ)” value [9]?
**A.** The value was 2.6 fold.

**Q.** What about the “High EGFRi, fold decrease in cell viability (μ)” value [10] of the same compound?
**A.** Its value is 13.5 fold.
